Read-outs that look alike come from different tables or passages of the source.
Columns and labels:
iNOS = assay: LPS-induced iNOS activity (nitrite production, Griess method) in J774 macrophages; assay type: cell-based, mice; settings: for nitrite production in LPS-induced J774 mice macrophages: LPS 2.5 ng/ml, 18 h, dose-dependent; for IC50: Mus musculus
Method: J774A.1 macrophages are grown in DMEM, supplemented with 10% Bovine Growth Serum (BGS) and 1% penicillin-streptomycin (PS). The J774A.1 macrophages are subsequently stimulated with LPS 2.5 ng/ml in DMEM supplemented with 10% BGS and 1% PS for 16 h-18 h. […] After incubation, the level of inflammation is evaluated by measuring the nitrite content in the medium by using the Griess method and normalized by protein concentration.

SARS-CoV-2 [1] = assay: Plaque Reduction Assay (PRA) of SARS-CoV-2 replication on VERO E6 cells; assay type: cell-based
SARS-CoV-2 [2] = assay: SARS-CoV-2 infected hamsters: viral titers and weight variation; assay type: in vivo, Golden Syrian hamsters
Method: Animal Studies. 5-6 Week-old Golden Syrian hamsters were infected with 4.5 log PFU of original SARS-CoV-2 strain. On days 1, 2 and 3, or 1 to 5 post-infection, the animals were treated intraperitoneally with either Remdesivir (15 mg/kg), analog RM-598-48 (50 mg/kg), Remdesivir (15 mg/kg)+analog RM-598-48 (50 mg/kg), analog RM-598-44 (50 mg/kg), or with vehicle only (FIG. 28). The hamsters were monitored daily over a period of 14 days for clinical symptoms and weight loss. On day 4 post-infection, nasal turbinates and lungs were harvested to assess viral replication. All animal studies were approved by the Animal Protection Committee of the Centre Hospitalier Universitaire de Québec according to the Canadian Council on Animal Care guidelines.
Viral titers. Viral titers were determined in cell culture to characterize the presence of live virus. Ten-fold dilutions of nasal turbinates and lung homogenates were performed in infection medium. After one week of infection, titers were determined and reported in TCID50 per gram of organ.

[3] = system: influenza A/Puerto Rico/8/34 (H1N1); assay type: cell-based; settings: A549 cells, 24 hours
[4] = system: interleukin-6 (IL-6) release; settings: skeletal muscle cells; PDX at submicromolar concentrations; cited from earlier work
[5] = Severe acute respiratory syndrome coronavirus 2, Vero C1008, read-out: SARS-COV-2 Inhibition (%)
[6] = 50 mg/kg IP from day 1 until day 5 post-infection
[7] = LPS-stimulated J774 macrophages, nitrite by Griess method, read-out: Anti-inflammatory Activity on iNOS IC50
[8] = Severe acute respiratory syndrome coronavirus 2, Vero C1008, VERO E6 cells, plaque reduction assay, read-out: SARS-COV-2 Inhibition IC50

Structure (SMILES): CC/C=C\C[C@H](O)C#C/C=C\C#C[C@@H](O)CCO [PDX-Al-1]
- nitrite production in LPS-induced J774 mice macrophages (iNOS): reduced nitrite production
- IC50 (iNOS; J774, read-out: Anti-inflammatory Activity on iNOS IC50): 18 µM
- inhibition at 5 µM (SARS-CoV-2 [1]; [5]): 40%
- inhibition at 50 µM (SARS-CoV-2 [1]; [5]): 30%
- weight loss (weight variation, % of initial weight) (SARS-CoV-2 [2]; [6]): tendency to limit weight loss, but not in a significant manner

Structure (SMILES): CC/C=C\C[C@H](O)/C=C/C=C\C=C\[C@@H](O)CCOc1ccc(CC(N)=O)cc1 [PDX-24]
- decrease in the viral charge ([3]; 50 μM): 39%
- nitrite production in LPS-induced J774 mice macrophages (iNOS): reduced nitrite production

Structure (SMILES): CC/C=C\C[C@H](O)/C=C/C=C\C=C\[C@@H](O)CCOc1ccc2ccc(=O)oc2c1 [PDX-18]
- nitrite production in LPS-induced J774 mice macrophages (iNOS): reduced nitrite production

Structure (SMILES): CC/C=C\C[C@H](O)/C=C/C=C\C=C\[C@@H](O)CCOc1cccc(CC(=O)OC)c1 [PDX-22]
- nitrite production in LPS-induced J774 mice macrophages (iNOS): reduced nitrite production

Structure (SMILES): CC/C=C\C[C@H](O)/C=C/C=C\C=C\[C@@H](O)CCNCCC [PDX-20]
- nitrite production in LPS-induced J774 mice macrophages (iNOS): reduced nitrite production

Structure (SMILES): CC/C=C\C[C@H](O)/C=C/C=C\C=C\[C@@H](O)CCOc1ccc(C(=O)OC)cc1 [PDX-16]
- nitrite production in LPS-induced J774 mice macrophages (iNOS): reduced nitrite production

Structure (SMILES): O=C1c2c(O)c(=O)ccn2N([C@@H]2c3ccccc3SCc3c2ccc(F)c3F)[C@@H]2COCCN12 [BXA, Baloxavir acid]
- decrease in the viral charge ([3]; 5 μM): 88%

Structure (SMILES): CC/C=C\C[C@H](O)/C=C/C=C\C=C\[C@@H](O)CCOc1cccc(CC(=O)O)c1 [PDX-21]
- nitrite production in LPS-induced J774 mice macrophages (iNOS): reduced nitrite production

Structure (SMILES): CC/C=C\C[C@H](O)/C=C/C=C\C=C\[C@@H](O)CCOc1ccc(CC(=O)NC)cc1 [PDX-23]
- nitrite production in LPS-induced J774 mice macrophages (iNOS): reduced nitrite production

Structure (SMILES): CC/C=C\C[C@H](O)/C=C/C=C/C=C/[C@@H](O)CCN1CCCCC1 [PDX-10]
- nitrite production in LPS-induced J774 mice macrophages (iNOS): reduced nitrite production
- IC50 (iNOS; [7]): 32 µM
- IC50 (SARS-CoV-2 [1]; [8]): 56 µM

Structure (SMILES): CC/C=C\C[C@H](O)/C=C/C=C\C=C\[C@@H](O)CCOc1ccc(CC(=O)OC)cc1 [PDX-2]
- nitrite production in LPS-induced J774 mice macrophages (iNOS): reduced nitrite production
- IC50 (iNOS; [7]): 64 µM
- IC50 (SARS-CoV-2 [1]; [8]): 33 µM
- weight loss (weight variation, % of initial weight) (SARS-CoV-2 [2]; [6]): significantly limit weight loss
- weight loss (weight variation, % of initial weight) (SARS-CoV-2 [2]; 50 mg/kg IP on days 1, 2 and 3 post-infection, significant at days 3, 9, 11, 12 and 14): significantly limit weight loss
- viral loads in nasal turbinates (SARS-CoV-2 [2]; 50 mg/kg IP on days 1, 2 and 3 post-infection, titers on day 4, vs untreated hamsters): significantly different from the untreated hamsters

Structure (SMILES): CC/C=C\C[C@H](O)/C=C/C=C\C=C\[C@@H](O)CCOc1ccc(C)cc1 [PDX-1]
- nitrite production in LPS-induced J774 mice macrophages (iNOS): reduced nitrite production
- IC50 (iNOS; [7]): 11 µM

Structure (SMILES): CC/C=C\C[C@H](O)/C=C/C=C\C=C\[C@@H](O)CCOc1ccncc1 [PDX-17]
- nitrite production in LPS-induced J774 mice macrophages (iNOS): reduced nitrite production

Structure (SMILES): CC/C=C\C[C@H](O)\C=C/C=C/C=C/[C@H](O)C/C=C\C/C=C\CCC(=O)O [PD1, protectin D1]
- release of interleukin-6 (IL-6) [4]: ineffective
- decrease in the viral charge ([3]; 50 μM): 10%

Structure (SMILES): CC/C=C\C[C@H](O)/C=C/C=C\C=C\[C@@H](O)C/C=C\C/C=C\CCC(=O)O [PDX, 10S, 17S-diHDA, reference compound]
- release of interleukin-6 (IL-6) [4]: induce the release
- IC50 (iNOS; [7]): 96 µM
- inhibition at 5 µM (SARS-CoV-2 [1]; Severe acute respiratory syndrome coronavirus 2, Vero C1008, 5 μM, VERO E6 cells, plaque reduction assay, read-out: SARS-COV-2 Inhibition (%)): 0%
- inhibition at 50 µM (SARS-CoV-2 [1]; Severe acute respiratory syndrome coronavirus 2, Vero C1008, 50 μM, VERO E6 cells, plaque reduction assay, read-out: SARS-COV-2 Inhibition (%)): 18%

Structure (SMILES): O=c1c(O)c(-c2ccc(O)c(O)c2)oc2cc(O)cc(O)c12 [Quercetin, reference compound]
- nitrite production in LPS-induced J774 mice macrophages (iNOS): reduced nitrite production

Structure (SMILES): CC/C=C\C[C@H](O)/C=C/C=C\C=C\[C@@H](O)CCOc1ccc(C(=O)O)cc1 [PDX-19]
- nitrite production in LPS-induced J774 mice macrophages (iNOS): reduced nitrite production

Structure (SMILES): CCC(CC)COC(=O)[C@H](C)N[P@](=O)(OC[C@H]1O[C@@](C#N)(c2ccc3c(N)ncnn23)[C@H](O)[C@@H]1O)Oc1ccccc1 [Remdesivir, reference compound]
- IC50 (SARS-CoV-2 [1]; Severe acute respiratory syndrome coronavirus 2, Vero C1008, read-out: SARS-COV-2 Inhibition IC50): 3.9 µM

Structure (SMILES): CC/C=C\C[C@H](O)/C=C/C=C\C=C\[C@@H](O)CCNCCCCCC [PDX-6]
- nitrite production in LPS-induced J774 mice macrophages (iNOS): reduced nitrite production
- IC50 (iNOS; [7]): 50 µM
- IC50 (SARS-CoV-2 [1]; [8]): 29 µM

Structure (SMILES): CC/C=C\C[C@H](O)/C=C/C=C\C=C\[C@@H](O)CCN1CCCCC1 [PDX-7]
- nitrite production in LPS-induced J774 mice macrophages (iNOS): reduced nitrite production
